According to the supplement of paper PMC9549728:
Counter-ions that a name gives are not always drawn.

Columns and labels:
Experiment in all cases: IC50 (viability, PrestoBlue) (log10 nM)
Conditions in all cases: exposure time: 72 h
[1] = test system: murine normal gastric organoid
How it was run: (§1)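 Murine gastric corpus organoids, uninduced or Cre-induced (RAS-activated, WNT-activated, diffuse), were mechanically dissociated and seeded in 15 μl Matrigel under 45 μl medium. Plates were 384-well, pre-spotted with DMSO-diluted compounds at nine final concentrations from 6.7 to 25,004 nM, and incubated 72 h. PrestoBlue (1× final) was added for 3 h at 37°C, with fluorescence read at 560/590 nm. IC50 came from Prism non-linear regression, reported as log10 nM, mean of three passages × two wells.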

[2] = test system: murine gastric organoid WNT-activated (Apc fl/fl; Tp53 R172H)
How it was run: as §1

[3] = test system: murine gastric organoid diffuse (Cdh1 fl/fl; Apc fl/fl)
How it was run: as §1

[4] = test system: murine gastric organoid RAS-activated (Kras G12D; Tp53 R172H)
How it was run: as §1

SMILES	IC50 (log10 nM) [1]	IC50 (log10 nM) [2]	IC50 (log10 nM) [3]	IC50 (log10 nM) [4]
CN(Cc1cnc2nc(N)nc(N)c2n1)c1ccc(C(=O)N[C@@H](CCC(=O)O)C(=O)O)cc1 [Methotrexate]	3.41	4.36	> 4.4	3.43
O=c1[nH]c(=O)n([C@H]2C[C@H](O)[C@@H](CO)O2)cc1F [Floxuridine]	2.96	1.61	3.8	3.16
CC(=O)Nc1cccc(-n2c(=O)n(C3CC3)c(=O)c3c(Nc4ccc(I)cc4F)n(C)c(=O)c(C)c32)c1 [Trametinib]	1.36	1.9	1.71	1.33
COC(=O)[C@]12CCC(C)(C)C[C@H]1[C@H]1C(=O)C=C3[C@@]4(C)C=C(C#N)C(=O)C(C)(C)[C@@H]4CC[C@@]3(C)[C@]1(C)CC2 [bardoxolone methyl]	2.61	2.92	3.24	2.38
CC(C)n1nc(-c2ccc3oc(N)nc3c2)c2c(N)ncnc21 [INK 128]	1.21	> 4.4	1.42	1.45
CC(C)[C@H](O)C(=O)N[C@@H](C)C(=O)N[C@@H]1C(=O)N(C)CCc2ccccc21 [Semagacestat]	4.35	2.37	> 4.4	> 4.4
CCCCCCCCCCCCCCCCCCOP(=O)([O-])OC1CC[N+](C)(C)CC1 [Perifosine]	< 0.826	1.16	> 4.4	< 0.826
Cn1cncc1[C@@](N)(c1ccc(Cl)cc1)c1ccc2c(c1)c(-c1cccc(Cl)c1)cc(=O)n2C [Tipifarnib]	2.96	3.16	3.73	< 0.826
COc1cc([C@@H]2c3cc4c(cc3[C@@H](O[C@@H]3O[C@@H]5CO[C@@H](c6cccs6)O[C@H]5[C@H](O)[C@H]3O)[C@H]3COC(=O)[C@H]23)OCO4)cc(OC)c1O [Teniposide]	1.79	2.84	2.35	1.83
COc1cccc2c1C(=O)c1c(O)c3c(c(O)c1C2=O)C[C@@](O)(C(=O)CO)C[C@@H]3O[C@H]1C[C@H](N)[C@H](O)[C@H](C)O1 [Doxorubicin]	2.02	2.2	2.23	2.14
CC[C@@]1(O)C(=O)OCc2c1cc1n(c2=O)Cc2cc3c(CN(C)C)c(O)ccc3nc2-1 [Topotecan hydrochloride]	1.48	2.36	2.4	1.68
COc1ccc(/C=C\c2cc(OC)c(OC)c(OC)c2)cc1OP(=O)(O)O [Fosbretabulin disodium]	< 0.826	1.85	2.47	2.23
Nc1ccn([C@@H]2O[C@H](CO)[C@@H](O)C2(F)F)c(=O)n1 [Gemcitabine]	1.23	1.74	1.53	1.54
CN(C)CCN1C(=O)c2cccc3cc(N)cc(c23)C1=O [Amonafide]	3.1	2.39	3.23	3.03
CN(C)c1ccccc1CN1CCCN(Cc2ccccc2N(C)C)C1c1ccncc1 [GANT-61]	1.27	2.6	2.53	1.22
Cn1cnc2c(F)c(Nc3ccc(Br)cc3Cl)c(C(=O)NOCCO)cc21 [Selumetinib]	2.47	3.32	3.15	2.61
C=CC(=O)Nc1cc2c(Nc3ccc(F)c(Cl)c3)ncnc2cc1OCCCN1CCOCC1 [Canertinib]	2.35	2.17	2.6	3.85

SMILES	IC50 (log10 nM) [1]	IC50 (log10 nM) [2]	IC50 (log10 nM) [3]	IC50 (log10 nM) [4]
O=C(O)CCCc1ccc(N(CCCl)CCCl)cc1 [Chlorambucil]	3.32	3.92	2.48	2.93
C=CCc1ccc(O)c(-c2ccc(O)c(CC=C)c2)c1 [Honokiol]	3.97	3.87	4.28	4.12
COc1cc2c(Oc3ccc4[nH]c(C)cc4c3F)ncnc2cc1OCCCN1CCCC1 [Cediranib maleate]	3.38	< 0.826	2.67	2.93
CCNC(=O)C[C@@H]1N=C(c2ccc(Cl)cc2)c2cc(OC)ccc2-n2c(C)nnc21	2.77	1.54	3.13	3.3
CC(C)C[C@H](NC(=O)[C@H](CCc1ccccc1)NC(=O)CN1CCOCC1)C(=O)N[C@@H](Cc1ccccc1)C(=O)N[C@@H](CC(C)C)C(=O)[C@@]1(C)CO1 [Carfilzomib]	1.16	1.32	1.04	1.16
Nc1ccccc1NC(=O)c1ccc(CNC(=O)OCc2cccnc2)cc1 [Entinostat]	4.22	3.99	3.39	3.36
CNC(=O)c1cc(Oc2ccc(NC(=O)Nc3ccc(Cl)c(C(F)(F)F)c3)c(F)c2)ccn1 [Regorafenib]	3.94	3.86	3.97	4.14
O=C(c1ccc(F)c(F)c1Nc1ccc(I)cc1F)N1CC(O)([C@@H]2CCCCN2)C1 [Cobimetinib]	1.45	1.82	1.74	1.75
NC(=O)N1CCC(CC(=O)N2CCC([C@H]3c4ncc(Br)cc4CCc4cc(Cl)cc(Br)c43)CC2)CC1 [lonafarnib]	3.33	3.47	4.3	3.03
CC[C@]12C=CCN3CC[C@@]4(c5cc([C@@]6(C(=O)OC)C[C@@H]7C[C@@H](C(C)(F)F)CN(Cc8c6[nH]c6ccccc86)C7)c(OC)cc5N(C)[C@H]4[C@@](O)(C(=O)OC)[C@@H]1OC(C)=O)[C@@H]32 [Vinflunine tartrate]	2.09	1.63	2.23	2.32
O=c1[nH]cc(F)c(=O)[nH]1 [fluorouracil]	3.4	4.09	3.28	3.32
CCCCC(=O)OCC(=O)[C@]1(O)Cc2c(O)c3c(c(O)c2[C@@H](O[C@H]2C[C@H](NC(=O)C(F)(F)F)[C@H](O)[C@H](C)O2)C1)C(=O)c1c(OC)cccc1C3=O [Valrubicin]	2.43	2.65	2.58	2.49
COc1cc2/c(=N/c3ccc(Br)cc3F)nc[nH]c2cc1OCC1CCN(C)CC1 [Vandetanib]	3.95	2.64	2.76	2.63
C[C@H](NC(=O)/C(C#N)=C/c1cccc(Br)n1)c1ccccc1 [WP1066]	3.47	3.26	3.52	3.49
O=C(Nc1cccc(Cl)c1)Nc1ncc(CCNc2ncnc3ccsc23)s1 [SNS-314]	3.2	2.87	4.02	2.47
C#Cc1cccc(Nc2ncnc3cc(OCCOC)c(OCCOC)cc23)c1 [Erlotinib]	2.58	2.67	2.97	> 4.4
COc1cc2nccc(Oc3ccc(NC(=O)Nc4cc(C)on4)c(Cl)c3)c2cc1OC [Tivozanib]	2.5	3.74	> 4.4	3.6
